Patent publication US9458181B2, “Cathepsin cysteine protease inhibitors” (Merck Sharp & Dohme Corp., priority 2013, dated 2016)

Experiments:
human cathepsin F = molecular target: T1, human cathepsin F (Homo sapiens, UniProt Q9UBX1); experiment: Cathepsin F assay (hCat F); assay type: biochemical; details: human cathepsin F 10 nM, Z-Phe-Arg-AMC 8 μM, pH 5.5, 15 min preincubation; read-out: hCat F IP
T1 sequence (Q9UBX1 271-484): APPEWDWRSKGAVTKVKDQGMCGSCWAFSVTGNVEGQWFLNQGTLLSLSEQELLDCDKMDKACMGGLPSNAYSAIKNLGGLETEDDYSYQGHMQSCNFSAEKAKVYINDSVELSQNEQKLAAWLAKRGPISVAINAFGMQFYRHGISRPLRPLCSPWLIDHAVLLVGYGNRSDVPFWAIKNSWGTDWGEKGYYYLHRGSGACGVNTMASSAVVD
Method in brief: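 Human cathepsin F (10 nM) in 50 mM MES pH 5.5, 2.5 mM EDTA, 2.5 mM DTT, 10% DMSO was preincubated 15 min at RT with compounds from a ⅓ DMSO dilution series (500–0.025 μM stocks). Z-Phe-Arg-AMC was added (8 μM as added), and AMC release was read by fluorescence (360/460 nm) for 20 min. Percent inhibition was fitted to a dose-response model.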

human cathepsin K = human cathepsin K (UniProt P43236); experiment: Cathepsin K Assay (hrbCat K); assay type: biochemical; details: human cathepsin K 0.4 nM, Z-Leu-Arg-AMC 8 μM, pH 5.5, 15 min preincubation; read-out: hrbCat K IP
Method in brief: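 Human cathepsin K (0.4 nM) in pH 5.5 MES buffer with EDTA, DTT and 10% DMSO was preincubated 15 min at room temperature with compound from a ⅓ dilution series (500-0.025 μM DMSO stocks). Z-Leu-Arg-AMC (8 μM) was then added, and AMC release was followed fluorometrically (Ex 360/Em 460 nm) for 30 min; inhibition was fitted to a dose-response model.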

Compound `N#CC1(NC(=O)[C@@H]2CCCC[C@H]2c2oc(-c3cc(F)cc(F)c3)nc2-c2ccc(N3CCS(=O)(=O)CC3)cc2)CC1` [Example 34, (1R,2R)-N-(1-cyanocyclopropyl)-2-(2-(3,5-difluorophenyl)-4-(4-(1,1-dioxidothiomorpholino)phenyl)oxazol-5-yl) cyclohexanecarboxamide] has an IC50 (human cathepsin F) of 442 nM and an IC50 (human cathepsin K) of 0.85 nM.
`CC(C)(C)[C@@H](C#N)NC(=O)[C@@H]1CCCC[C@H]1c1oc(-c2ccc(F)cc2)nc1-c1ccc(N2CCS(=O)(=O)CC2)cc1` [Example 157, (1R,2R)-N-((S)-1-cyano-2,2-dimethylpropyl)-2-(4-(4-(1,1-dioxidothiomorpholino)phenyl)-2-(4-fluorophenyl)oxazol-5-yl)cyclohexanecarboxamide] gave an IC50 (human cathepsin F) of 2330 nM and an IC50 (human cathepsin K) of 289 nM.
In the case of `N#CC1(NC(=O)[C@@H]2CCCC[C@H]2c2oc(-c3ccccc3C(F)(F)F)nc2-c2ccc(N3CCS(=O)(=O)CC3)cc2)CC1` [Example 69, (1R,2R)-N-(1-cyanocyclopropyl)-2-(4-(4-(1,1-dioxidothiomorpholino)phenyl)-2-(2-(trifluoromethyl)phenyl)oxazol-5-yl)cyclohexanecarboxamide], the IC50 (human cathepsin F) is reported as 827 nM and the IC50 (human cathepsin K) is reported as 2.94 nM.
Compound `CC1(C)C(c2nc(-c3ccc(N4CCS(=O)(=O)CC4)cc3)c([C@@H]3CCCC[C@H]3C(=O)NC3(C#N)CC3)o2)C1(C)C` [Example 113, (1R,2R)-N-(1-cyanocyclopropyl)-2-(4-(4-(1,1-dioxidothiomorpholino)phenyl)-2-(2,2,3,3-tetramethylcyclopropyl)oxazol-5-yl)cyclohexanecarboxamide] has an IC50 (human cathepsin F) of 2450 nM and an IC50 (human cathepsin K) of 4.21 nM.
With `N#CC1(NC(=O)[C@@H]2CCCC[C@H]2c2oc(-c3ccc(F)cc3)nc2-c2ccc(N3CC[S+]([O-])CC3)cc2)CC1` [Example 135, (1R,2R)-N-(1-cyanocyclopropyl)-2-(2-(4-fluorophenyl)-4-(4-(1-oxidothiomorpholino)phenyl)oxazol-5-yl)cyclohexanecarboxamide] the IC50 (human cathepsin F) was 458 nM and the IC50 (human cathepsin K) was 1.39 nM.
`N#CC1(NC(=O)[C@@H]2CCCC[C@H]2c2oc(Cc3ccccc3)nc2-c2ccc(N3CCS(=O)(=O)CC3)cc2)CC1` [Example 50, (1R,2R)-2-(2-benzyl-4-(4-(1,1-dioxidothiomorpholino)phenyl)oxazol-5-yl)-N-(1-cyanocyclopropyl) cyclohexanecarboxamide] gave an IC50 (human cathepsin F) of 698 nM and an IC50 (human cathepsin K) of 1.6 nM.
With `N#CC1(NC(=O)[C@@H]2CCCC[C@H]2c2oc(-c3cncc(N4CCS(=O)(=O)CC4)c3)nc2-c2ccc(N3CCS(=O)(=O)CC3)cc2)CC1` [Example 92, (1R,2R)-N-(1-cyanocyclopropyl)-2-(4-(4-(1,1-dioxidothiomorpholino)phenyl)-2-(5-(1,1-dioxidothiomorpholino)pyridin-3-yl)oxazol-5-yl)cyclohexanecarboxamide] the IC50 (human cathepsin F) was 803 nM and the IC50 (human cathepsin K) was 0.92 nM.
`N#CC1(NC(=O)[C@@H]2CCCC[C@H]2c2oc(-c3cnc(C(F)(F)F)nc3)nc2-c2ccc(N3CCS(=O)(=O)CC3)cc2)CC1` [Example 85, (1R,2R)-N-(1-cyanocyclopropyl)-2-(4-(4-(1,1-dioxidothiomorpholino)phenyl)-2-(2-(trifluoromethyl)pyrimidin-5-yl)oxazol-5-yl)cyclohexanecarboxamide] was tested, and the IC50 (human cathepsin F) was 2520 nM and the IC50 (human cathepsin K) was 1.57 nM.
Compound `N#CC1(NC(=O)[C@@H]2C[C@@H](F)CC[C@H]2c2oc(-c3ccc(F)cc3)nc2-c2ccc(N3CCS(=O)(=O)CC3)cc2)CC1` [Example 31, (1R,2R,5S)-N-(1-cyanocyclopropyl)-2-(4-(4-(1,1-dioxidothiomorpholino)phenyl)-2-(4-fluorophenyl)oxazol-5-yl)-5-fluorocyclohexane-carboxamide] has an IC50 (human cathepsin F) of 1390 nM and an IC50 (human cathepsin K) of 0.61 nM.
Work on `N#CC1(NC(=O)[C@@H]2CCCC[C@H]2c2oc(-c3ccc(C4CC4)cc3)nc2-c2ccc(N3CCS(=O)(=O)CC3)cc2)CC1` [Example 101, (1R,2R)-N-(1-cyanocyclopropyl)-2-(2-(4-cyclopropylphenyl)-4-(4-(1,1-dioxidothiomorpholino)phenyl)oxazol-5-yl)cyclohexanecarboxamide] yielded an IC50 (human cathepsin F) of 377 nM and an IC50 (human cathepsin K) of 0.88 nM.
Compound `N#CC1(NC(=O)[C@@H]2CCCC[C@H]2c2oc(-c3ccc(OC(F)(F)F)cc3)nc2-c2ccc(N3CCS(=O)(=O)CC3)cc2)CC1` [Example 61, (1R,2R)-N-(1-cyanocyclopropyl)-2-(4-(4-(1,1-dioxidothiomorpholino)phenyl)-2-(4-(trifluoromethoxy)phenyl)oxazol-5-yl)cyclohexanecarboxamide] has an IC50 (human cathepsin F) of 511 nM and an IC50 (human cathepsin K) of 1.36 nM.
Compound `N#CCNC(=O)[C@@H]1CC(F)(F)CC[C@H]1c1oc(C(F)(F)C(F)(F)F)nc1-c1ccc(C(=O)N2CCOCC2)cc1` [Example 136, (1R,2R)-N-(cyanomethyl)-5,5-difluoro-2-(4-(4-(morpholine-4-carbonyl)phenyl)-2-(perfluoroethyl)oxazol-5-yl)cyclohexanecarboxamide] has an IC50 (human cathepsin F) of 319 nM and an IC50 (human cathepsin K) of 0.74 nM.
Work on `N#C[C@@H](NC(=O)[C@@H]1CCCC[C@H]1c1oc(-c2ccc(F)cc2)nc1-c1ccc(N2CCS(=O)(=O)CC2)cc1)C1CCCCC1` [Example 156, (1R,2R)-N-((S)-cyano(cyclohexyl)methyl)-2-(4-(4-(1,1-dioxidothiomorpholino)phenyl)-2-(4-fluorophenyl)oxazol-5-yl)cyclohexanecarboxamide] yielded an IC50 (human cathepsin F) of 179 nM and an IC50 (human cathepsin K) of 2.41 nM.
With `Cc1nc(-c2ccc(N3CCS(=O)(=O)CC3)cc2)c([C@@H]2CCC(F)(F)C[C@H]2C(=O)NC2(C#N)CC2)o1` [Example 18, (1R,2R)-N-(1-cyanocyclopropyl)-2-(4-(4-(1,1-dioxidothiomorpholino)phenyl)-2-methyloxazol-5-yl)-5,5-difluorocyclohexane-carboxamide] the IC50 (human cathepsin F) was 178 nM and the IC50 (human cathepsin K) was 0.48 nM.
In the case of `N#Cc1cccc(-c2nc(-c3ccc(N4CCS(=O)(=O)CC4)cc3)c([C@@H]3CCCC[C@H]3C(=O)NC3(C#N)CC3)o2)c1` [Example 93, (1R,2R)-N-(1-cyanocyclopropyl)-2-(2-(3-cyanophenyl)-4-(4-(1,1-dioxidothiomorpholino)phenyl)oxazol-5-yl)cyclohexanecarboxamide], the IC50 (human cathepsin F) is reported as 1100 nM and the IC50 (human cathepsin K) is reported as 1.89 nM.
Work on `CC(C)C(C#N)NC(=O)[C@@H]1CCCC[C@H]1c1oc(-c2ccc(F)cc2)nc1-c1ccc(N2CCS(=O)(=O)CC2)cc1` (single isomer, unassigned) [Example 123, (1R,2R)-N-((S or R)-1-cyano-2-methylpropyl)-2-(4-(4-(1,1-dioxidothiomorpholino)phenyl)-2-(4-fluorophenyl)oxazol-5-yl)cyclohexanecarboxamide] yielded an IC50 (human cathepsin F) of 472 nM and an IC50 (human cathepsin K) of 2.13 nM.
Compound `N#Cc1ccc(-c2nc(-c3ccc(N4CCS(=O)(=O)CC4)cc3)c([C@@H]3CCCC[C@H]3C(=O)NC3(C#N)CC3)o2)cc1` [Example 74, (1R,2R)-N-(1-cyanocyclopropyl)-2-(2-(4-cyanophenyl)-4-(4-(1,1-dioxidothiomorpholino)phenyl)oxazol-5-yl)cyclohexanecarboxamide] has an IC50 (human cathepsin F) of 645 nM and an IC50 (human cathepsin K) of 1.46 nM.
For `N#CC1(NC(=O)[C@@H]2CCCC[C@H]2c2oc(-c3cncc(Cl)c3)nc2-c2ccc(N3CCS(=O)(=O)CC3)cc2)CC1` [Example 95, (1R,2R)-2-(2-(5-chloropyridin-3-yl)-4-(4-(1,1-dioxidothiomorpholino)phenyl)oxazol-5-yl)-N-(1-cyanocyclopropyl) cyclohexanecarboxamide], the IC50 (human cathepsin F) was 775 nM and the IC50 (human cathepsin K) was 1.17 nM.
